Assay results from US12122763B2, “Substituted piperidines for androgen receptor degradation” (UBIX THERAPEUTICS, INC., priority 2020, dated 2024).

Biological target: T1, Androgen Receptor (AR) protein (Homo sapiens, UniProt P10275, T878A)
T1 construct: endogenous in cells; host or cells: LNCaP
Assay: Androgen Receptor (AR) protein degradation assay in LNCaP cells, western blotting
Assay type: cell-based
Settings: 20 h; for inhibition at 0.01 µM: 0.01 μM compound; for inhibition at 0.1 µM: 0.1 μM compound; for inhibition at 1 µM: 1 μM compound
Experimental: Experimental Example 1: Androgen Receptor (AR) Protein Degradation Assay
After treating LNCaP cells with the synthesized Example compound, the amount of AR protein present in the cells was measured. The amount of AR protein was measured using western blotting detection method. The protocol of the experiment using LNCaP cells was as follows:
[Culture] LNCaP cells were resuspended in RPMI1640 MEDIUM (Hyclone, SH30027.01), 10% FBS (Hyclone, SV30207.02), and 1% Penicillin-streptomycin (Welgene, LS 202-02) media to be 3×10^5/mL. Then, 1 mL each was seeded in a 12-well plate. After that, they were cultured for 3 days.
[Compound treatment] 10 μl of 0.1, 1, 10, and 100 μM compound, which is the final compound treatment concentration and a 100× stock of 0.001, 0.01, 0.1, and 1 μM, was added in 1 ml media of each well, and 20 hours later, the cells were harvested.
[Cell Lysis] Cell pellets were suspended using 1% SDS lysis buffer (50 mM Tris, 1 mM EDTA, 1% SDS, pH 8.0, 0.5 mM PMSF, 1× Protease/Phosphatase inhibitor Cocktail (Cell Signaling Technology, 5872s)), and sonication (70% AMP, 5 cycles (30 sec ON/59 sec OFF)) was performed. Cell lysate was obtained after centrifugation at 4° C., 15000 g, for 20 minutes.
[Protein quantification] A BCA protein assay (SMART™ BCA Protein Assay Kit, iNtRON Biotechnology, 21071) was performed using a 96-well microplate. After adding 5 μl cell lysate and 5 μl 1% SDS lysis buffer to each well of the 96-well plate, 200 μl of BCA reagent (Reagent A:Reagent B=50:1) was additionally added. After incubation at 37° C. for 30 minutes, it was cooled at room temperature for 10 minutes. Then, absorbance was measured at a wavelength of 562 nm. The unknown protein concentration was measured using a BSA standard curve (0, 0.125, 0.25, 0.5, 1, 2 mg/ml). Western blotting samples were prepared by mixing cell lysate, 1% SDS lysis buffer, 4× Bolt™ LDS Sample buffer (Invitrogen, B0008), and 10× Bolt™ Sample Reducing Agent (Invitrogen, B0009) and boiling the mixture at 70° C. for 10 minutes.
[Electrophoresis] After loading 8 μg of protein sample into each well of Bolt™ 4 to 12%, Bis-Tris, 1.0 mm Mini Protein Gel, 17-well (Invitrogen, NW04127BOX), Bolt™ MES SDS Running Buffer (Invitrogen, B0002) was used for electrophoresis at 200V (constant V) for 50 minutes.
[Transfer] Using electrophoresis gel and Trans-Blot® Turbo™ Transfer Starter System (Bio-RAD, #17001918, Mini Nitrocellulose), transfer proceeded for 15 minutes under the condition of 1.3A (Constant A) and 25V (Limit V). To confirm protein transfer, 15 ml of Ponceau S solution (Sigma, P7170-1L) was used for staining for 1 minute, followed by washing to confirm the degree of transfer.
[Blocking] Membranes for AR detection were blocked for 45 minutes with 5% skim milk/0.2% TBST (Skim milk: BD, 232100/20× TBS: Biosesang, TR2008-100-00/10% Tween 20 Solution: Bio-RAD, #161-0781). Membranes for GAPDH and β-actin detection were blocked for 45 minutes with Odyssey blocking buffer: 0.1% TBST=1:1 (Odyssey blocking buffer: Li-COR Biosciences, 927-50000).
[Antibody and detection] The primary AR antibody (Androgen Receptor: CST, 5153s) was mixed with 5% skim milk/0.2% TBST at a ratio of 1:1000 and attached for 3 hours at room temperature. Primary β-actin antibody (GeneTex, 629630) was mixed with 5% BSA/0.2% TBST at a ratio of 1:2000 and attached for 3 hours at room temperature. Primary GAPDH antibody (GeneTex, 100118) was mixed with 5% BSA/0.2% TBST at a ratio of 1:2000 and attached for 3 hours at room temperature. After 3 hours, it was washed 3 times every 5 minutes using TBST (0.2% Tween 20). Anti-rabbit IgG, HRP-linked Antibody (CST, 7074s), secondary antibody for the AR antibody was mixed with 5% skim milk/0.2% TBST at a ratio of 1:5000 and attached for 45 minutes at room temperature. […]

T1 sequence (P10275 whole entry T878A): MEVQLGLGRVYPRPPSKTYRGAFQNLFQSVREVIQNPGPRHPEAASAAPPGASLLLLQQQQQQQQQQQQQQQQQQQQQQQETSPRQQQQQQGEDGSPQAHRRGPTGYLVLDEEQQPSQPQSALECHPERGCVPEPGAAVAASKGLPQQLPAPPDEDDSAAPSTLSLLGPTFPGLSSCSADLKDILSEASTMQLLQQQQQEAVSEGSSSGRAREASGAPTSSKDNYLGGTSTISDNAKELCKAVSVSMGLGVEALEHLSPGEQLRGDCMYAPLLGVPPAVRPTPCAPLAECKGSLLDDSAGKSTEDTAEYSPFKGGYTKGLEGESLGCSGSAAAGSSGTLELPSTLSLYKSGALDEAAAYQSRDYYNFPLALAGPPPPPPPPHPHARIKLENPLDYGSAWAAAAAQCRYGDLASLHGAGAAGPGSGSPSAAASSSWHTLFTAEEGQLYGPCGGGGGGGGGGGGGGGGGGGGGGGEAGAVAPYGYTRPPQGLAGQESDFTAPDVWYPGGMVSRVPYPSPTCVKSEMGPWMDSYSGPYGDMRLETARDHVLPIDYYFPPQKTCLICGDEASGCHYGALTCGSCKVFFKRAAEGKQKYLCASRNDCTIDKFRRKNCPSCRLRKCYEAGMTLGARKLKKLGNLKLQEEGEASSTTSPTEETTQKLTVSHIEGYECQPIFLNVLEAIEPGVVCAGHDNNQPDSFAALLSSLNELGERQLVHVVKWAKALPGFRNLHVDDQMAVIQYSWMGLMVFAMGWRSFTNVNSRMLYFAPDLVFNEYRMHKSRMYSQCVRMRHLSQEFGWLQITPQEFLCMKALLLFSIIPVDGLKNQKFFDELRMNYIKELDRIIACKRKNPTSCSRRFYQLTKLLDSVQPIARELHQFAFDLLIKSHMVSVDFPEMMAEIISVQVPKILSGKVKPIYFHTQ
T1 sequence (Q96SW2 whole entry partner): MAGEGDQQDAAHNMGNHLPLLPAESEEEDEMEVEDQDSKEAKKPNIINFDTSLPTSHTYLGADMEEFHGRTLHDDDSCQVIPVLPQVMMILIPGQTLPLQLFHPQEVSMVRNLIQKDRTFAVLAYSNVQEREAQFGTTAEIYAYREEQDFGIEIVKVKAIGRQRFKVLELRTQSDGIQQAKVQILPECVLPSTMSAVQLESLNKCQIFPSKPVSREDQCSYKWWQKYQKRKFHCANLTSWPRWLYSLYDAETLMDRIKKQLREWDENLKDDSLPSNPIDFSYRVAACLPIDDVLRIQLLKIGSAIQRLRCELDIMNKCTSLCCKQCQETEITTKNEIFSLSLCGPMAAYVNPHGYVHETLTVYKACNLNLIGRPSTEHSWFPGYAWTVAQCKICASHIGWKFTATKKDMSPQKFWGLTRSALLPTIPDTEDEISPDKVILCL

| Structure (SMILES) | inhibition at 0.01 µM | inhibition at 0.1 µM | inhibition at 1 µM |
| --- | --- | --- | --- |
| N#Cc1ccc(N2CCC(C(=O)Nc3ccc(N4CCC(CN5CCN(C[C@H]6CCN(c7ccc8c(c7)C(=O)N(C7CCC(=O)NC7=O)C8=O)C6)CC5)CC4)cn3)CC2)cc1C(F)(F)F (stereo partly drawn) [Example 14, 1-(4-cyano-3-(trifluoromethyl)phenyl)-N-(5-(4-((4-(((3R)-1-(2-(2,6-dioxopiperidin-3-yl)-1,3-dioxoisoindolin-5-yl)pyrrolidin-3-yl)methyl)piperazin-1-yl)methyl)piperidin-1-yl)pyridin-2-yl)piperidine-4-carboxamide] | 72% | 98% | 97% |
| N#Cc1ccc(N2CCC(C(=O)Nc3ccc(N4CCC(CN5CCN(C[C@@H]6CCN(c7ccc8c(c7)C(=O)N(C7CCC(=O)NC7=O)C8=O)C6)CC5)CC4)cn3)CC2)cc1C(F)(F)F (stereo partly drawn) [Example 15, 1-(4-cyano-3-(trifluoromethyl)phenyl)-N-(5-(4-((4-(((3S)-1-(2-(2,6-dioxopiperidin-3-yl)-1,3-dioxoisoindolin-5-yl)pyrrolidin-3-yl)methyl)piperazin-1-yl)methyl)piperidin-1-yl)pyridin-2-yl)piperidine-4-carboxamide] | 60% | 97% | 98% |
| N#Cc1ccc(N2CCC(C(=O)Nc3ccc(N4CCC(CN5CCN(C[C@H]6CCCN(c7ccc8c(c7)C(=O)N(C7CCC(=O)NC7=O)C8=O)C6)CC5)CC4)cn3)CC2)cc1C(F)(F)F (stereo partly drawn) [Example 16, 1-(4-cyano-3-(trifluoromethyl)phenyl)-N-(5-(4-((4-(((3R)-1-(2-(2,6-dioxopiperidin-3-yl)-1,3-dioxoisoindolin-5-yl)piperidin-3-yl)methyl)piperazin-1-yl)methyl)piperidin-1-yl)pyridin-2-yl)piperidine-4-carboxamide] | 50% | 94% | 97% |
| N#Cc1ccc(N2CCC(C(=O)Nc3ccc(N4CCC(CN5CCN(C[C@@H]6CCCN(c7ccc8c(c7)C(=O)N(C7CCC(=O)NC7=O)C8=O)C6)CC5)CC4)cn3)CC2)cc1C(F)(F)F (stereo partly drawn) [Example 17, 1-(4-cyano-3-(trifluoromethyl)phenyl)-N-(5-(4-((4-(((3S)-1-(2-(2,6-dioxopiperidin-3-yl)-1,3-dioxoisoindolin-5-yl)piperidin-3-yl)methyl)piperazin-1-yl)methyl)piperidin-1-yl)pyridin-2-yl)piperidine-4-carboxamide] | 44% | 90% | 90% |
| N#Cc1ccc(N2CCC(C(=O)Nc3ccc(N4CCC(CN5CCN(CC6CCN(c7cc8c(cc7F)C(=O)N(C7CCC(=O)NC7=O)C8=O)CC6)CC5)CC4)cn3)CC2)cc1C(F)(F)F (stereo not drawn) [Example 18, 1-(4-cyano-3-(trifluoromethyl)phenyl)-N-(5-(4-((4-((1-(2-(2,6-dioxopiperidin-3-yl)-6-fluoro-1,3-dioxoisoindolin-5-yl)piperidin-4-yl)methyl)piperazin-1-yl)methyl)piperidin-1-yl)pyridin-2-yl)piperidine-4-carboxamide] | 36% | 93% | 95% |
| N#Cc1ccc(N2CCC(C(=O)Nc3ccc(N4CCC(CN5CCN(C[C@H]6CCN(c7cc8c(cc7F)C(=O)N(C7CCC(=O)NC7=O)C8=O)C6)CC5)CC4)cn3)CC2)cc1C(F)(F)F (stereo partly drawn) [Example 19, 1-(4-cyano-3-(trifluoromethyl)phenyl)-N-(5-(4-((4-(((3R)-1-(2-(2,6-dioxopiperidin-3-yl)-6-fluoro-1,3-dioxoisoindolin-5-yl)pyrrolidin-3-yl)methyl)piperazin-1-yl)methyl)piperidin-1-yl)pyridin-2-yl)piperidine-4-carboxamide] | 42% | 93% | 96% |
| N#Cc1ccc(N2CCC(C(=O)Nc3ccc(N4CCC(CN5CCN(CC6CN(c7cc8c(cc7F)C(=O)N(C7CCC(=O)NC7=O)C8=O)C6)CC5)CC4)cn3)CC2)cc1C(F)(F)F (stereo not drawn) [Example 20, 1-(4-cyano-3-(trifluoromethyl)phenyl)-N-(5-(4-((4-((1-(2-(2,6-dioxopiperidin-3-yl)-6-fluoro-1,3-dioxoisoindolin-5-yl)azetidin-3-yl)methyl)piperazin-1-yl)methyl)piperidin-1-yl)pyridin-2-yl)piperidine-4-carboxamide] | 67% | 97% | 97% |
| N#Cc1ccc(N2CCC(C(=O)Nc3ccc(N4CCC(CN5CCN(CC6CCN(c7ccc8c(c7)C(=O)N(C7CCC(=O)NC7=O)C8=O)CC6)CC5)CC4)cc3)CC2)cc1C(F)(F)F (stereo not drawn) [Example 21, 1-(4-cyano-3-(trifluoromethyl)phenyl)-N-(4-(4-((4-((1-(2-(2,6-dioxopiperidin-3-yl)-1,3-dioxoisoindolin-5-yl)piperidin-4-yl)methyl)piperazin-1-yl)methyl)piperidin-1-yl)phenyl)piperidine-4-carboxamide] | 47% | 50% | 63% |
| N#Cc1ccc(N2CCC(C(=O)Nc3ccc(N4CCC(CN5CCN(C[C@H]6CCN(c7ccc8c(c7)C(=O)N(C7CCC(=O)NC7=O)C8=O)C6)CC5)CC4)cc3)CC2)cc1C(F)(F)F (stereo partly drawn) [Example 22, 1-(4-cyano-3-(trifluoromethyl)phenyl)-N-(4-(4-((4-(((3R)-1-(2-(2,6-dioxopiperidin-3-yl)-1,3-dioxoisoindolin-5-yl)pyrrolidin-3-yl)methyl)piperazin-1-yl)methyl)piperidin-1-yl)phenyl)piperidine-4-carboxamide] | 1% | 24% | 49% |
| C[C@@H]1CN(CC2CCN(c3ccc4c(c3)C(=O)N(C3CCC(=O)NC3=O)C4=O)CC2)CCN1CC1CCN(c2ccc(NC(=O)C3CCN(c4ccc(C#N)c(C(F)(F)F)c4)CC3)nc2)CC1 (stereo partly drawn) [Example 23, 1-(4-cyano-3-(trifluoromethyl)phenyl)-N-(5-(4-(((2R)-4-((1-(2-(2,6-dioxopiperidin-3-yl)-1,3-dioxoisoindolin-5-yl)piperidin-4-yl)methyl)-2-methylpiperazin-1-yl)methyl)piperidin-1-yl)pyridin-2-yl)piperidine-4-carboxamide] | 69% | 98% | 97% |
| C[C@@H]1CN(CC2CN(c3ccc4c(c3)C(=O)N(C3CCC(=O)NC3=O)C4=O)C2)CCN1CC1CCN(c2ccc(NC(=O)C3CCN(c4ccc(C#N)c(C(F)(F)F)c4)CC3)nc2)CC1 (stereo partly drawn) [Example 24, 1-(4-cyano-3-(trifluoromethyl)phenyl)-N-(5-(4-(((2R)-4-((1-(2-(2,6-dioxopiperidin-3-yl)-1,3-dioxoisoindolin-5-yl)azetidin-3-yl)methyl)-2-methylpiperazin-1-yl)methyl)piperidin-1-yl)pyridin-2-yl)piperidine-4-carboxamide] | 53% | 96% | 95% |
